Results: paper PMC6165432 (International Journal of Molecular Sciences, 2018)
Read-outs that look alike come from different tables or passages of the source.

Tests used:
human AhR (hAhR) = molecular target: T1, human AhR (hAhR) (Homo sapiens, UniProt P35869); test: AhR-responsive luciferase reporter gene assay in stably transfected human HG2L6.1c1 hepatoma cells
T1 sequence (P35869 11-848): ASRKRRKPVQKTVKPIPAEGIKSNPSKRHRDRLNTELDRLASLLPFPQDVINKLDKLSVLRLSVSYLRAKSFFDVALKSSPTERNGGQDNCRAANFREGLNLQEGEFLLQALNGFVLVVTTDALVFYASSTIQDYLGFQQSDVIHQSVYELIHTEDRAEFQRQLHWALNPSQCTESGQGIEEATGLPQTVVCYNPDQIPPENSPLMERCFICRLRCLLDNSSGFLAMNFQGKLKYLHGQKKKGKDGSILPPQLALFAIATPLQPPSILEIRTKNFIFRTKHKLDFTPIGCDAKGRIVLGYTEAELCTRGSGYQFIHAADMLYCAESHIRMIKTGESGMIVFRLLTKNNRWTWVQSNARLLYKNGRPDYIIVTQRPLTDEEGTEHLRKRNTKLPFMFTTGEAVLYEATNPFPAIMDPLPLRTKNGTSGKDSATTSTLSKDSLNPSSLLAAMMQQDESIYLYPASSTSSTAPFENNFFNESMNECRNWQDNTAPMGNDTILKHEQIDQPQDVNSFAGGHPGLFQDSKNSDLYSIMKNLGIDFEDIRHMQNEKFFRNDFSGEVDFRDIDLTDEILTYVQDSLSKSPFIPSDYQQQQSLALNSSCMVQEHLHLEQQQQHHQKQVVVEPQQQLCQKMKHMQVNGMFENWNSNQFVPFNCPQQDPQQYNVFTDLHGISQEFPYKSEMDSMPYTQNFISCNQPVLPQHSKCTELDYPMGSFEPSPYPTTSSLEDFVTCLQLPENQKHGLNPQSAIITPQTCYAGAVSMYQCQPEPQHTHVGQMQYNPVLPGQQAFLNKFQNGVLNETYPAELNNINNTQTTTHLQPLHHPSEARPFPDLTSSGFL
Method: (§2) AhR-dependent gene transcription was determined in (A) human HG2L6.1c.1 and (B) mouse H1L6.1c.3 hepatoma cell lines that contain a stably transfected AhR-responsive luciferase reporter gene. […] Luciferase activity (Relative Light Units (RLUs)) was normalized to the maximal induction observed with TCDD in each cell line. Values represent the mean ± SD of nine independent analyses.
(§3) Recombinant mouse (H1L6.1c3) and human (HG2L6.1c1) hepatoma cells containing a stably integrated AhR-responsive luciferase reporter gene plasmid (pGudLuc6.1) were plated (750,000 cells/well) in 96-well plates and incubated at 37 °C for 24 h prior to chemical treatment. Cells were incubated with DMSO (1% (v/v)) or the indicated concentration of test chemical in DMSO for 4 h, followed by visual inspection of the cells for toxicity, washing of the cells with phosphate-buffered saline (PBS), addition of 50 µL of passive lysis buffer (Promega) and lysis of cells for 20 min at room temperature with shaking [50]. Luciferase activity in each well was measured (integrating luminescence over 10 s with a 10 s delay) in an Orion microplate luminometer (Berthold Detection Systems, Bad Wildbad, Germany) following automatic injection of Promega stabilized luciferase reagent.
(§4) Analysis of statistical significance of differences between experimental values was conducted using Two-Way ANOVA and EC50s and IC50s were calculated using nonlinear regression (three parameter) analysis in GraphPad Prism v.7 (La Jolla, CA, USA).

mouse AhR (mAhR) = molecular target: T2, mouse AhR (mAhR) (Mus musculus, UniProt P30561); test: AhR-responsive luciferase reporter gene assay in stably transfected mouse H1L6.1c3 hepatoma cells; assay type: cell-based
T2 sequence (P30561 10-805): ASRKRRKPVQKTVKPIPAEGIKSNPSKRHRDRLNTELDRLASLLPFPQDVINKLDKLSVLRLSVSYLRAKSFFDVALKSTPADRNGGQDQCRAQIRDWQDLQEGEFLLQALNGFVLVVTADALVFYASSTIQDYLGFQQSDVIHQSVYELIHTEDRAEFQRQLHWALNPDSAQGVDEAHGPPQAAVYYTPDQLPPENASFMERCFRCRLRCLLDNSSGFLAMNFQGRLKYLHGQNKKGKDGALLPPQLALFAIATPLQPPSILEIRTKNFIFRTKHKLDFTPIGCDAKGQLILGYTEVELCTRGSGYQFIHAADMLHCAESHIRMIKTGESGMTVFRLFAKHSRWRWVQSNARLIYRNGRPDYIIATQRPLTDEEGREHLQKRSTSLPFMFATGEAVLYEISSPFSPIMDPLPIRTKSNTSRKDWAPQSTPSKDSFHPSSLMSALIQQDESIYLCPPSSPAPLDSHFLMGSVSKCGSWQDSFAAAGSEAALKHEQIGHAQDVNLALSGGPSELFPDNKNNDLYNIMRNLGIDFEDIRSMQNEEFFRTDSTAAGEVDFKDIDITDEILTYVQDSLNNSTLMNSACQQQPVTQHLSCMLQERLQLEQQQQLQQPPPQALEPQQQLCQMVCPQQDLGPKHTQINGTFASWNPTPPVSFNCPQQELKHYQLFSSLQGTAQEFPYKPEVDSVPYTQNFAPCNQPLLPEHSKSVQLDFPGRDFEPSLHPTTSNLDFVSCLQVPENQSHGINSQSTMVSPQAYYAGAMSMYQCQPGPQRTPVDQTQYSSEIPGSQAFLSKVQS
Method: as §2, §3, §4

mutant mAhR I324M = molecular target: T3, mutant mAhR I324M (Mus musculus, UniProt P30561); test: AhR DNA binding (gel retardation) assay, I324M mAhR; assay type: biochemical
T3 construct: made in house; host or cells: in vitro transcription/translation, rabbit reticulocyte lysate
Method: (§5) An aliquot of each incubation was mixed with [^32P]-labeled double-stranded oligonucleotide containing the AhR-ARNT DRE3 DNA binding site (a dioxin responsive element from the upstream region of the murine Cyp1a1 gene [9] and protein-DNA complexes resolved by gel retardation analysis as previously described [48, 49]. Gels were visualized using a FLA9000 Fujifilm Imager and protein-DNA complexes quantitated with Fujifilm MultiGauge software (FujiFilm Corporation, Valhalla, NY, USA).
as §4

mAhR A375V [1] = conditions: A375V versus high-affinity mAhR ref 27, 28; cited from earlier work
hAhR = hAhR (Homo sapiens, UniProt P35869); test: biochemical; design: only occur within the full length hAhR and not in the mAhR-hAhRLBD chimera; made in house; host or cells: in vitro transcription/translation, rabbit reticulocyte lysate
Method: (§6) (A) The amount of inducible protein-DNA complex at each chemical concentration was quantitated and values normalized to the amount of complex formed with a maximal activating concentration of TCDD (20 nM). […] Values represent the mean ± SD of nine individual replicate analyses.
as §5, §4

mutant hAhR V381A = molecular target: T4, mutant hAhR V381A (Homo sapiens, UniProt P35869, V381A); test: AhR DNA binding (gel retardation) assay, V381A hAhR; assay type: biochemical
T4 construct: made in house; host or cells: in vitro transcription/translation, rabbit reticulocyte lysate
Method: as §5, §4
(§7) In vitro synthesized mutant mAhRs were incubated in the presence of
(§8) 45 nM-10,000 nM) for 2 h and DNA binding analyzed by the gel retardation assay as described in
(§9) 46 Materials and Methods. Values represent the mean ± SD of nine individual replicate analyses and
(§10) 47 EC50 values determined by nonlinear regression (three-parameter) analysis and graphical depictions

mutant mAhR T343I = molecular target: T5, mutant mAhR T343I (Mus musculus, UniProt P30561, M324I/T343I); test: AhR DNA binding (gel retardation) assay, T343I mAhR; assay type: biochemical
T5 construct: made in house; host or cells: in vitro transcription/translation, rabbit reticulocyte lysate
Method: as §5, §4

mutant mAhR R355T = molecular target: T6, mutant mAhR R355T (Mus musculus, UniProt P30561, M324I/R355T); test: AhR DNA binding (gel retardation) assay, R355T mAhR; assay type: biochemical
T6 construct: made in house; host or cells: in vitro transcription/translation, rabbit reticulocyte lysate
Method: as §5, §4, §7, §8, §9, §10

mutant hAhR T355A = molecular target: T7, mutant hAhR T355A (Homo sapiens, UniProt P35869, T355A); test: AhR DNA binding (gel retardation) assay, T355A hAhR; assay type: biochemical
T7 construct: made in house; host or cells: in vitro transcription/translation, rabbit reticulocyte lysate
Method: as §5, §4, §7, §8, §9, §10

mutant mAhR I301V = molecular target: T8, mutant mAhR I301V (Mus musculus, UniProt P30561, I301V/M324I); test: AhR DNA binding (gel retardation) assay, I301V mAhR; assay type: biochemical
T8 construct: made in house; host or cells: in vitro transcription/translation, rabbit reticulocyte lysate
Method: as §5, §4

wild-type mAhR = system: T9, wild-type mAhR; test: Transient transfection luciferase reporter assay in COS-1 cells, wild-type mAhR; assay type: cell-based, mouse; conditions: COS-1 cells cotransfected with wild-type mAhR; TCDD 10 nM, IR 1 µM, 18–20 h
T9 construct: contains a full-length mAhR cDNA in which the mouse PASB LBD was replaced; expressed in transfected cells; host or cells: COS-1
Method: (§11) Cells were lysed, and lysates were analyzed for firefly luciferase activity. […] Luciferase activity (relative light units; RLU) was measured and corrected for background (DMSO) and normalized to mAhR TCDD levels. Values represent the mean ± SD of nine individual replicate analyses.
(§12) COS-1 cells were plated at a density of 75,000 cells/well and allowed to attach overnight in a 24-well plate. Cells were transiently transfected (per well) with the following amounts per well: 2 µL Lipofectamine 2000 (Invitrogen, Carlsbad, CA, USA), 20 ng wild-type (mβAhR/pcDNA3) or mutant AhR expression plasmids (in pcDNA3.1), 20 ng of mβARNT/pcDNA3 or pcDNA3.1(+) and 200 ng pGudLuc6.1 [17].

mutant mAhR L300I = molecular target: T10, mutant mAhR L300I (Mus musculus, UniProt P30561, L300I/M324I); test: AhR DNA binding (gel retardation) assay, L300I mAhR; assay type: biochemical
T10 construct: made in house; host or cells: in vitro transcription/translation, rabbit reticulocyte lysate
Method: as §5, §4

mutant mAhR A349T [2] = molecular target: T11, mutant mAhR A349T (Mus musculus, UniProt P30561, A349T/M324I); test: biochemical; design: made in house; host or cells: in vitro transcription/translation, rabbit reticulocyte lysate
Target sequence in this assay (P30561 10-805 M324I/A349T limits assumed): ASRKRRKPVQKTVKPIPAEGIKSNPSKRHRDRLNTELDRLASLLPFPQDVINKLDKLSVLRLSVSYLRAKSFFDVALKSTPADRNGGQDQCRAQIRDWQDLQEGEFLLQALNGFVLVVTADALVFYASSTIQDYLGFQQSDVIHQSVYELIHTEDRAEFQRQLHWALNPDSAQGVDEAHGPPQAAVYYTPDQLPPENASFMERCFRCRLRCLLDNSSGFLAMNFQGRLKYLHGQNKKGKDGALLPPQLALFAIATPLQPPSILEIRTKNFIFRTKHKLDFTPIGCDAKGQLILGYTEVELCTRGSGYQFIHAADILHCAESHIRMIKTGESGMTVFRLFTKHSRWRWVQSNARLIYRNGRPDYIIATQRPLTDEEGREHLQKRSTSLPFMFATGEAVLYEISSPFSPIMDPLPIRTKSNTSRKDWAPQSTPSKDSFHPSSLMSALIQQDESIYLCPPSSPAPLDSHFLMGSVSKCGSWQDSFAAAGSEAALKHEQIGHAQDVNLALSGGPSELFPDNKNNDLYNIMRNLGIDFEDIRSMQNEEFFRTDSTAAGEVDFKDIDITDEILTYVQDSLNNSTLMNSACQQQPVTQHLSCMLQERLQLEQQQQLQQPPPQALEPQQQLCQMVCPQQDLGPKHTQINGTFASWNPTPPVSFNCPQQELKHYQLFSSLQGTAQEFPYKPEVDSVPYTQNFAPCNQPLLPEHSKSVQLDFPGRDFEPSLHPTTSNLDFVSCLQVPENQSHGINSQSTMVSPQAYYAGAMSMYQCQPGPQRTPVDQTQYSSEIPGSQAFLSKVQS
Target sequence in this assay (P53762 whole entry partner): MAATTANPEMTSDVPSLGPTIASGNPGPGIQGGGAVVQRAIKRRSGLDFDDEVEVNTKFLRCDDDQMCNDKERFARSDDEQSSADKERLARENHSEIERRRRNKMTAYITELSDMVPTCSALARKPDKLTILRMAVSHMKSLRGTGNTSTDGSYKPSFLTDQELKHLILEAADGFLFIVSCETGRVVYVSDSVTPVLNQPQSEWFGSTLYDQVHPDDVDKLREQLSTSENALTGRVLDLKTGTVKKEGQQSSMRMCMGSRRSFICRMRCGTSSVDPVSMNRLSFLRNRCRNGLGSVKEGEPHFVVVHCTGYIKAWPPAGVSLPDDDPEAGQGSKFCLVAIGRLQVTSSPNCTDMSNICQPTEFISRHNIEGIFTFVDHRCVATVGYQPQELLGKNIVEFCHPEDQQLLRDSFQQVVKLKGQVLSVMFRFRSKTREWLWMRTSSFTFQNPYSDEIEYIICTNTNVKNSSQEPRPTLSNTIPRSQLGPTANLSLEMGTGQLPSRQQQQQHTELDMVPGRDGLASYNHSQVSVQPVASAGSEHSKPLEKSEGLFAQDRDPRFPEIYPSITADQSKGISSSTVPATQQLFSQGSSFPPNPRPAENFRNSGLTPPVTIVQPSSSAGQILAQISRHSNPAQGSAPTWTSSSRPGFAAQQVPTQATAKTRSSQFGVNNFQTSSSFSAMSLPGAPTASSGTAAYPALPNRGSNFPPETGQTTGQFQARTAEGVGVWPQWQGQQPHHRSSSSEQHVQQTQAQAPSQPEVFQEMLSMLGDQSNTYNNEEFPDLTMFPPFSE
Method: as §5, §4

mAhR A375V [3] = conditions: A375V versus high-affinity mAhR ref 27, 28; cited from earlier work; remark: listed apart in the source
mutant mAhR V307A = molecular target: T12, mutant mAhR V307A (Mus musculus, UniProt P30561, M324I/V307A); test: AhR DNA binding (gel retardation) assay, V307A mAhR; assay type: biochemical
T12 construct: made in house; host or cells: in vitro transcription/translation, rabbit reticulocyte lysate
Method: as §5, §4

mutant A349T mAhR = system: T13, mutant A349T mAhR; test: Transient transfection luciferase reporter assay in COS-1 cells, A349T mAhR; assay type: cell-based, mouse; conditions: COS-1 cells cotransfected with A349T mAhR; TCDD 10 nM, IR 1 µM, 18–20 h
T13 construct: contains a full-length mAhR cDNA in which the mouse PASB LBD was replaced; expressed in transfected cells; host or cells: COS-1
Method: as §11, §12

mutant mAhR H351N = molecular target: T14, mutant mAhR H351N (Mus musculus, UniProt P30561, H351N/M324I); test: AhR DNA binding (gel retardation) assay, H351N mAhR; assay type: biochemical
T14 construct: made in house; host or cells: in vitro transcription/translation, rabbit reticulocyte lysate
Method: as §5, §4, §7, §8, §9, §10

mAhR [4] = molecular target: T15, mAhR (Mus musculus, UniProt P30561, M324I); test: biochemical; design: made in house; host or cells: in vitro transcription/translation, rabbit reticulocyte lysate (Promega TNT)
Method: as §6, §5, §4

mutant mAhR Q299R = molecular target: T16, mutant mAhR Q299R (Mus musculus, UniProt P30561, M324I/Q299R); test: AhR DNA binding (gel retardation) assay, Q299R mAhR; assay type: biochemical
T16 construct: made in house; host or cells: in vitro transcription/translation, rabbit reticulocyte lysate
Method: as §5, §4

mutant mAhR H326Y = molecular target: T17, mutant mAhR H326Y (Mus musculus, UniProt P30561, H326Y/M324I); test: AhR DNA binding (gel retardation) assay, H326Y mAhR; assay type: biochemical
T17 construct: made in house; host or cells: in vitro transcription/translation, rabbit reticulocyte lysate
Method: as §5, §4

mutant mAhR A375V = molecular target: T18, mutant mAhR A375V (Mus musculus, UniProt P30561, A375V/M324I); test: biochemical
T18 construct: made in house; host or cells: in vitro transcription/translation, rabbit reticulocyte lysate
Method: as §5, §4

mutant mAhR S352N = molecular target: T19, mutant mAhR S352N (Mus musculus, UniProt P30561, M324I/S352N); test: AhR DNA binding (gel retardation) assay, S352N mAhR; assay type: biochemical
T19 construct: made in house; host or cells: in vitro transcription/translation, rabbit reticulocyte lysate
Method: as §5, §4, §7, §8, §9, §10

mutant hAhR Y332H = molecular target: T20, mutant hAhR Y332H (Homo sapiens, UniProt P35869, Y332H); test: AhR DNA binding (gel retardation) assay, Y332H hAhR; assay type: biochemical
T20 construct: made in house; host or cells: in vitro transcription/translation, rabbit reticulocyte lysate
Method: as §5, §4, §7, §8, §9, §10

mutant mAhR A349T [5] = molecular target: T11, mutant mAhR A349T; design: host or cells: rabbit reticulocyte lysate, coupled transcription/translation; conditions: specific binding
Method: (§1) [^3H]TCDD specific binding was determined by subtracting the amount of [^3H]TCDD bound to unprogrammed lysate (nonspecific binding) from the total amount of [^3H]TCDD binding to lysate containing in vitro expressed AhR.
Target sequence in this assay (P30561 10-805 M324I/A349T limits assumed): as the sequence (P30561 10-805 M324I/A349T limits assumed) above

mAhR [6] = molecular target: T15, mAhR; design: host or cells: rabbit reticulocyte lysate, coupled transcription/translation; conditions: in vitro synthesized AhRs, specific binding
Method: as §1
Target sequence in this assay (P30561 10-805 M324I limits assumed): as the sequence (P30561 10-805 M324I/A349T limits assumed) above, with T340A counted along it

[7] = mouse H1L6.1c3 hepatoma cells, 4 h, mean ± SD of nine analyses, read-out: EC50 to stimulate luciferase reporter gene expression, Mouse

T4 sequence (P35869 11-848 V381A): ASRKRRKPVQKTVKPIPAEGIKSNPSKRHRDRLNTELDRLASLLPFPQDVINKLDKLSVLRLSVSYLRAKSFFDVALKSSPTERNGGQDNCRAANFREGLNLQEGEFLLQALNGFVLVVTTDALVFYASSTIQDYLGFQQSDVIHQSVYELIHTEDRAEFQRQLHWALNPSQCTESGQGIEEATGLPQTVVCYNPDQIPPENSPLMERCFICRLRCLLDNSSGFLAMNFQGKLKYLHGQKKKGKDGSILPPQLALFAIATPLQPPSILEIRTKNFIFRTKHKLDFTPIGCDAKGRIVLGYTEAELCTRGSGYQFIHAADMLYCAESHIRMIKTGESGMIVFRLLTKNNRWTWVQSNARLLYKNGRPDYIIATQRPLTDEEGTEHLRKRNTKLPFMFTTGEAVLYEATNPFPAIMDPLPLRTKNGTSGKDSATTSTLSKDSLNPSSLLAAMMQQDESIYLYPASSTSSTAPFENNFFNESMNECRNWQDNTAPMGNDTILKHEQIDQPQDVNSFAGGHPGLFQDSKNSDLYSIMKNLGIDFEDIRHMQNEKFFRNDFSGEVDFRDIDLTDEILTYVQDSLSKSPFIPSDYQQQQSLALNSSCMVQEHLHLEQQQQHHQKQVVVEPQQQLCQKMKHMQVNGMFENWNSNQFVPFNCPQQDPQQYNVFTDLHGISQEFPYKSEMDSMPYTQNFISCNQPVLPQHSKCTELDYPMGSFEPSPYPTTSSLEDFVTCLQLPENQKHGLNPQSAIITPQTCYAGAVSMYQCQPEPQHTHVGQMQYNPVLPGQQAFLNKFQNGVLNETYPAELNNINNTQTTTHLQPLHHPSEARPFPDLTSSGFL
T4 sequence (P27540 whole entry partner): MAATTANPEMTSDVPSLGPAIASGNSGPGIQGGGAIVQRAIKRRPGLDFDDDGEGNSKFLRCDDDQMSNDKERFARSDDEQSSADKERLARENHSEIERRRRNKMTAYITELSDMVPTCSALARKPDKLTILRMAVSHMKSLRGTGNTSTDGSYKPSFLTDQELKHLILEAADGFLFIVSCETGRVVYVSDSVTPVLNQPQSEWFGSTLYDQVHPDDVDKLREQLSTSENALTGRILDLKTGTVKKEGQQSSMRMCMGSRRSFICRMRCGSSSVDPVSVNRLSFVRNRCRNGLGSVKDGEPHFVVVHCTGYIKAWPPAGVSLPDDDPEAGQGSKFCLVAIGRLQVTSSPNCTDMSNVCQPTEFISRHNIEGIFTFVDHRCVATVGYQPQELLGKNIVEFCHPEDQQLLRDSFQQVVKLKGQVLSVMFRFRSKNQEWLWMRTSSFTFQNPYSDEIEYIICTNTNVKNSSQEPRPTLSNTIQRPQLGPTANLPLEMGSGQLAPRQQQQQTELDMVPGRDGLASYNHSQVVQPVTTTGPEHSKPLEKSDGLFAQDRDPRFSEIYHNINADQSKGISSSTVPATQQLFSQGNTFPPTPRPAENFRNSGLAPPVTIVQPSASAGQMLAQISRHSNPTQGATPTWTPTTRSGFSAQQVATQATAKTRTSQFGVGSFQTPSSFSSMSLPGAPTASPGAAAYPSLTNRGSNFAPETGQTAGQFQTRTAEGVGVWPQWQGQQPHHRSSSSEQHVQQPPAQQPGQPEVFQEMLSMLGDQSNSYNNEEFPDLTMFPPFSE
T5 sequence (P30561 10-805 M324I/T343I limits assumed): as the sequence (P30561 10-805 M324I/A349T limits assumed) above, with T334I, T340A counted along it
T5 sequence (P53762 whole entry partner): as the sequence (P53762 whole entry partner) above
T19 sequence (P30561 10-805 M324I/S352N limits assumed): as the sequence (P30561 10-805 M324I/A349T limits assumed) above, with T340A, S343N counted along it
T19 sequence (P53762 whole entry partner): as the sequence (P53762 whole entry partner) above

COC(=O)c1csc(C(=O)c2c[nH]c3ccccc23)n1 [ITE, 2-(1H-Indol-3-ylcarbonyl)-4-thiazolecarboxylic acid methyl ester]
EC50 (human AhR (hAhR)): 184 ± 42.1 nM | EC50 at 4 h (mouse AhR (mAhR); [7]): 22.3 ± 3.53 nM

Clc1cc2c(cc1Cl)Oc1cc(Cl)c(Cl)cc1O2 [TCDD, 2,3,7,8-tetrachlorodibenzo-p-dioxin]
EC50 (mutant mAhR I324M): 2.92 ± 0.14 nM | lower affinity of the mAhR after mutation A375V (mAhR A375V [1]): ~ 10 fold | EC50 (hAhR): 2.46 ± 0.9 nM | EC50 (mutant hAhR V381A): 2.99 ± 0.65 nM | EC50 (mutant mAhR T343I): 1.79 ± 0.12 nM | EC50 (mutant mAhR R355T): 0.94 ± 0.06 nM | EC50 (human AhR (hAhR)): 0.26 ± 0.07 nM | EC50 (mutant hAhR T355A): 2.32 ± 0.82 nM | EC50 (mutant mAhR I301V): 2.09 ± 0.01 nM | induction of luciferase activity, TCDD versus IR (wild-type mAhR): comparable to IR | EC50 (mutant mAhR L300I): 1.42 ± 0.61 nM | EC50 (mutant mAhR A349T [2]): 3.86 ± 1.06 nM | lower activation potency of the mAhR after mutation A375V (mAhR A375V [3]): ~ 10 fold | EC50 (mutant mAhR V307A): 4.25 ± 0.12 nM | EC50 at 4 h (mouse AhR (mAhR); mouse): 0.027 ± 0.01 nM | maximal induction compared with wild-type mAhR (mutant A349T mAhR): significantly repressed compared to wild-type mAhR | EC50 (mutant mAhR H351N): 0.73 ± 0.04 nM | EC50 (mAhR [4]): 2.48 ± 0.54 nM | EC50 (mutant mAhR Q299R): 2.29 ± 0.12 nM | EC50 (mutant mAhR H326Y): 0.62 ± 0.52 nM | EC50 (mutant mAhR A375V): 5.25 ± 0.56 nM | EC50 (mutant mAhR S352N): 4.34 ± 0.26 nM | EC50 (mutant hAhR Y332H): 0.59 ± 0.6 nM

Clc1cc2oc3cc(Cl)c(Cl)cc3c2cc1Cl [TCDF, 2,3,7,8-tetrachlorodibenzofuran]
EC50 (human AhR (hAhR)): 4.1 ± 0.79 nM | EC50 (mouse AhR (mAhR); [7]): 1.25 ± 0.65 nM

Clc1cc2c(cc1Cl)Oc1cc(Cl)c(Cl)cc1O2 [[^3H]TCDD]
[3H]TCDD binding to A349T mutant mAhR compared with wild-type mAhR (mutant mAhR A349T [5]): not significantly different from that of the wild-type mAhR | more [3H]TCDD bound to wild-type mAhR than to the mAhR-hAhRLBD chimera (mAhR [6]): ~ 10%
